Assay results: patent US20130324542A1, “[1,2,4]TRIAZOLO[4,3-B][1,2,4]TRIAZINE COMPOUNDS, PREPARATION METHOD AND USE THEREOF” (SHANGHAI INSTITUTE OF MATERIA MEDICA, CHINESE ACADEMY OF …, priority 2010, published 2013)

How the values were obtained:
c-Met tyrosine kinase = c-Met tyrosine kinase (Homo sapiens, UniProt P08581); assay: c-Met kinase activity on molecular level (ELISA, Poly(Glu,Tyr)4:1 substrate); format: biochemical; conditions: ATP 5 μM, 37° C., 1 h
Method: Poly(Glu, Tyr)4:1 as an enzyme substrate was diluted by potassium ion-free PBS (10 mM, sodium phosphate buffer, 150 mM NaCl, pH7.2-7.4) into a solution of 20 μg/ml. […] After the liquid in wells was removed, the plate was washed three time by T-PBS (PBS solution containing 0.1% Tween-20) at 200 μl/well, 5 min for each time. The ELISA plate was then dried in an oven at 37° C. for 1-2 h.
Each well was added with 50 μL of ATP solution diluted by reaction buffer (50 mM HEPES pH 7.4, 50 mM MgCl2, 0.5 mM MnCl2, 0.2 mM Na3VO4, 1 mM DTT) at a final concentration of 5 μM. Compound diluted by 1% DMSO into a suitable concentration was added at 10 μl/well and then c-Met tyrosine kinase protein diluted by 40 μl of reaction buffer was added. The plate was placed on a shaking table (100 rpm) at 37° C. and incubated for 1 h, and then washed three times by T-PBS. For each assay, triplicate wells without enzyme were used as blank control and wells having the corresponding DMSO concentration without compound were used as negative control. Primary antibody PY99 (p-Tyr (PY99), Cell Signaling Technology, 1:1000 diluted in 5 mg/mL BSA T-PBS) was added at 100 μl/well. The plate was then placed on a shaking table at 37° C. and incubated for 0.5 h, and washed by T-PBS. Secondary antibody horseradish peroxidase-conjugated goat anti-mouse IgG (1:2000 diluted in 5 mg/mL BSA T-PBS) was added at 100 μl/well. The plate was then placed on a shaking table at 37° C. for 0.5 h and washed three times by T-PBS. 2 mg/mL of OPD developer (diluted by a 0.1M citric acid-sodium citrate buffer (pH=5.4) containing 0.03% of H2O2) was added at 100 μl/well, and the plate was kept in dark at 25° C. for 1-10 min. OPD was ultrasonically dissolved and the developer solution was prepared just before use. 2 M of H2SO4 was added at 50 μl/well to stop the reaction. The plate was read using a wavelength regulated multi-well spectrophotometer (SPECTRA MAX 190) at 490 nm.
The inhibition rate was calculated according to the following equation:
Inhibition rate (%)=(1−(ODcompound−ODblank)/(ODnegative−ODblank))×100%
IC50 value was calculated through a four-parameter fit according to the inhibition curve.

NIH3T3/TPR-Met cells = assay: Cell proliferation mediated by c-Met, SRB assay, NIH3T3/TPR-Met cells; format: cell-based; conditions: Mus musculus, NIH3T3, 72 h, read-out: inhibition rate (%) on proliferation of NIH3T3/TPR-Met cells
Method: Three concentrations were set, and for each concentration, the test was carried out in triplicate wells. 72 h later, the culture medium was removed. The residue was fixed by precooled 10% TCA at 4° C. for 1 h, washed by distilled water for 5 times and dried at room temperature. […] The excess dye was removed by washed with 1% glacial acetic acid for 5 times and dried in air. At last, 150 μL of Tris-HCL solution (10 mM Tris, pH 10.0) was added to each well.

NIH3T3 background cells = assay: Cell proliferation, SRB assay, NIH3T3 background cells as control; format: cell-based; conditions: Mus musculus, NIH3T3, 72 h, read-out: inhibition rate (%) on proliferation of NIH3T3 background cells
Method: NIH3T3/TPR-Met cells in the logarithmic growth phase and NIH3T3 background cells were seeded in a 96-well microcuture plate at 90111_, per well and cultivated overnight, followed by addition of 104 of the compound at different concentrations. Three concentrations were set, and for each concentration, the test was carried out in triplicate wells. 72 h later, the culture medium was removed. The residue was fixed by precooled 10% TCA at 4° C. for 1 h, washed by distilled water for 5 times and dried at room temperature. After that, 4 mg/mL of sulforodamine B (SRB) in 1% glacial acetic acid was added to each well (1004 per well) for staining at room temperature for 15 min. The excess dye was removed by washed with 1% glacial acetic acid for 5 times and dried in air. At last, 150 μL of Tris-HCL solution (10 mM Tris, pH 10.0) was added to each well. OD values were measured on a multi-well spectrophotometer at […].

Sequence of c-Met tyrosine kinase (P08581 25-1390): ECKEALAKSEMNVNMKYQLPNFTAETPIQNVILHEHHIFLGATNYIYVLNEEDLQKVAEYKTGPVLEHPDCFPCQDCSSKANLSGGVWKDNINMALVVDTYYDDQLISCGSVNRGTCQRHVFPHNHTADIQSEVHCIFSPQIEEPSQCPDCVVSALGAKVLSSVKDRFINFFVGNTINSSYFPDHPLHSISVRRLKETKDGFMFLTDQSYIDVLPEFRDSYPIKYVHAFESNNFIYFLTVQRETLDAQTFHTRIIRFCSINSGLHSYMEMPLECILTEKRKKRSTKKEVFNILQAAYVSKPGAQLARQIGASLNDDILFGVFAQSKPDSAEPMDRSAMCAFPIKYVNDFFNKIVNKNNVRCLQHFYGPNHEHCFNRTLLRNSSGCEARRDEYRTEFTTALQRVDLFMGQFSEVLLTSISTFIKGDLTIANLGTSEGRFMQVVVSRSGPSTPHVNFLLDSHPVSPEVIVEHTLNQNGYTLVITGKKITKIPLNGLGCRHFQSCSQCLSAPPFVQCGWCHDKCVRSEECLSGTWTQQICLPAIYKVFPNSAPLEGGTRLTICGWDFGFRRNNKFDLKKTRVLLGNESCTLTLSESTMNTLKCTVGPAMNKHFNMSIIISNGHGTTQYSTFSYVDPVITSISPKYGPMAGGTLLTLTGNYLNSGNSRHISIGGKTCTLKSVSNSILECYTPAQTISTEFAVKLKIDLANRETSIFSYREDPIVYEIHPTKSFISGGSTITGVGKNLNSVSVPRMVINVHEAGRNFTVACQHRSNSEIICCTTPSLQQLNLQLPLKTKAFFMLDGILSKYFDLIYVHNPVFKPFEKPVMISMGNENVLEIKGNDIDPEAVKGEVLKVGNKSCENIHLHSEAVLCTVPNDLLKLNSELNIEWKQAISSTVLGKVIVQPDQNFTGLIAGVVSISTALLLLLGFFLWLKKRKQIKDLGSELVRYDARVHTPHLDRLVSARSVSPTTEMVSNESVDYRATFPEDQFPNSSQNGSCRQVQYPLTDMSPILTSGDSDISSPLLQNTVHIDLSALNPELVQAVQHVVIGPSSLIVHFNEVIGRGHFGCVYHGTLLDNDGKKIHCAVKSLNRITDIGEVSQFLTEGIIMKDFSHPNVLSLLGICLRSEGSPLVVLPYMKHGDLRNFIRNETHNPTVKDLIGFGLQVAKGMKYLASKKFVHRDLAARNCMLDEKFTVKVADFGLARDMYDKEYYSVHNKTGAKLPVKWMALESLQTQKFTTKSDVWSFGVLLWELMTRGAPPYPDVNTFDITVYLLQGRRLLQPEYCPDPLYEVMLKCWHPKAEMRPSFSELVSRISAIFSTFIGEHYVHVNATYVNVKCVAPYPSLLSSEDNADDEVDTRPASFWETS

| Compound | IC50 (c-Met tyrosine kinase) | inhibition at 1 µM (NIH3T3/TPR-Met cells) | inhibition at 10 µM (NIH3T3/TPR-Met cells) | inhibition at 50 µM (NIH3T3/TPR-Met cells) | inhibition at 1 µM (NIH3T3 background cells) | inhibition at 10 µM (NIH3T3 background cells) | inhibition at 50 µM (NIH3T3 background cells) |
| --- | --- | --- | --- | --- | --- | --- | --- |
| Fc1ccc(-c2cnc3nnc(COc4ccnc5ccccc45)n3n2)cc1 [II-21, 3-(4-quinolyloymethyl)-6-(4-fluorophenyl)-[1,2,4]triazolo[4,3-b][1,2,4]triazine] | 0.81 nM | 24.6% | 81.4% | 84.3% | 28.9% | 53.9% | 57.5% |
| COc1cc2nccc(OCc3nnc4ncc(-c5ccc(Br)cc5)nn34)c2cc1OC [II-16, 3-[(6,7-dimethoxy-4-quinolyl)oxymethyl]-6-(4-bromophenyl)-[1,2,4]triazolo[4,3-b][1,2,4] triazine] | 0.2 nM | – | 87.9% | – | – | 56.2% | – |
| COc1ccc2c(OCc3nnc4ncc(-c5cnn(C)c5)nn34)ccnc2c1 [II-29, 3-[(7-methoxy-4-quinolyl)oxymethyl]-6-[(1-methyl)-4-pyrazolo]-[1,2,4]triazolo[4,3-b][1,2,4] triazine] | 2.4 nM | 87.4% | 88.2% | 91.9% | 31.8% | 32.9% | 50.9% |
| Oc1ccc(-c2cnc3nnc(COc4ccnc5ccccc45)n3n2)cc1 [II-24, 3-(4-quinolyloxymethyl)-6-(4-hydroxyphenyl)-[1,2,4]triazolo[4,3-b][1,2,4]triazine] | 0.78 nM | 5.3% | 53.1% | 70.6% | 17.1% | 25.1% | 28.4% |
| COc1ccc2c(OCc3nnc4ncc(-c5ccc(Br)cc5)nn34)ccnc2c1 [II-3, 3-[(7-methoxy-4-quinolyl)oxymethyl]-6-(4-bromophenyl)-[1,2,4]triazolo[4,3-b][1,2,4]triazine] | 0.23 nM | – | 77.3% | – | – | 33.8% | – |
| CC(C)(C)OC(=O)N1CCC(n2cc(-c3cnc4nnc(C(F)(F)c5ccc6ncccc6c5)n4n3)cn2)CC1 [Compound I-20, 3-[(6-quinolyl)difluoromethyl]-6-[1-(1-tert-butoxycarbonyl-4-piperidyl)-4-pyrazolyl]-[1,2,4] triazolo[4,3-b][1,2,4]triazine] | 7.9 nM | 81.2% | 87.8% | 86.5% | 18.8% | 25.8% | 38.6% |
| COc1ccc2c(OCc3nnc4ncc(-c5ccc(Cl)c(Cl)c5)nn34)ccnc2c1 [II-20, 3-[(7-methoxy-4-quinolyl)oxymethyl]-6-(3,4-dichlorophenyl)-[1,2,4]triazolo[4,3-b][1,2,4] triazine] | 0.7 nM | 78.7% | 89.4% | 86.7% | 10.4% | 22.5% | 21.4% |
| COC(=O)c1ccc(-c2cnc3nnc(COc4ccnc5cc(OC)c(OC)cc45)n3n2)cc1 [II-18, 3-[(6,7-dimethoxy-4-quinolyl)oxymethyl]-6-(4-methoxyformylphenyl)-[1,2,4]triazolo[4,3-b] [1,2,4]triazine] | 3.7 nM | 5.6% | 22.9% | 82.6% | 29.6% | 37.3% | 63.5% |
| c1ccc(COc2ccc(-c3cnc4nnc(Cc5c[nH]c6ccccc56)n4n3)cc2)cc1 [Compound I-18, 3-(3-indolylmethyl)-6-(4-bnzyloxyphenyl)-[1,2,4]triazolo[4,3-b][1,2,4]triazine] | – | – | – | – | 17.5% | 20.8% | 28.7% |
| COc1ccc2c(OCc3nnc4ncc(-c5cccs5)nn34)ccnc2c1 [II-4, 3-[(7-methoxy-4-quinolyl)oxymethyl]-6-(2-thienyl)-[1,2,4]triazolo[4,3-b][1,2,4]triazine] | 20.1 nM | – | 80.6% | – | – | 0% | – |
| COc1cc2nccc(OCc3nnc4ncc(-c5ccc(Cl)cc5)nn34)c2cc1OC [II-15, 3-[(6,7-dimethoxy-4-quinolyl)oxymethyl]-6-(4-chlorophenyl)-[1,2,4]triazolo[4,3-b][1,2,4] triazine] | 182 nM | – | 22.6% | – | – | 0% | – |
| COc1cccc(-c2cnc3nnc(COc4ccnc5ccccc45)n3n2)c1 [II-26, 3-(4-quinolyloxymethyl)-6-(3-methoxyphenyl)-[1,2,4]triazolo[4,3-b][1,2,4]triazine] | 1 nM | 20.9% | 82.7% | 83.9% | 36.8% | 58.7% | 62.2% |
| Brc1ccc(-c2cnc3nnc(Cc4ccc5ncccc5c4)n3n2)cc1 [Compound I-17, 3-(6-quinolylmethyl)-6-(4-bromophenyl)-[1,2, 4]triazolo[4,3-b][1,2,4]triazine] | – | – | – | – | 24.9% | 35.9% | 34.9% |
| c1ccc(-c2cnc3nnc(COc4ccnc5ccccc45)n3n2)cc1 [II-22, 3-(4-quinolyloxymethyl)-6-phenyl-[1,2,4] triazolo[4,3-b][1,2,4]triazine] | 0.7 nM | 63.9% | 81.7% | 78.8% | 38.6% | 53.8% | 48.1% |
| CCCn1cc(-c2cnc3nnc(Cc4c[nH]c5ccccc45)n3n2)cn1 [Compound I-9, 3-(3-indolylmethyl)-6-[(1-propyl)-4-pyrazolyl]-[1,2,4]triazolo[4,3-b][1,2,4]triazine] | 223 nM | 5% | 9.4% | 67.5% | 17.8% | 22.7% | 37.3% |
| COc1cc2nccc(OCc3nnc4ncc(-c5ccc(F)cc5)nn34)c2cc1OC [II-14, 3-[(6,7-dimethoxy-4-quinolyl)oxymethyl]-6-(4-fluorophenyl)-[1,2,4]triazolo[4,3-b][1,2,4] triazine] | 3 nM | – | 75.6% | – | – | 0% | – |
| Oc1cccc(-c2cnc3nnc(COc4ccnc5ccccc45)n3n2)c1 [II-27, 3-(4-quinolyloxymethyl)-6-(3-hydroxyphenyl)-[1,2,4]triazolo[4,3-b][1,2,4]triazine] | 0.88 nM | 9.2% | 72.6% | 80.7% | 18.3% | 37.7% | 46% |
| c1ccc(COc2ccc(-c3cnc4nnc(Cc5ccc6ncccc6c5)n4n3)cc2)cc1 [Compound I-2, 3-(6-quinolylmethyl)-6-(4-benzyloxyphenyl)-[1,2,4]triazolo[4,3-b][1,2,4]triazine] | – | – | – | – | 16.2% | 28.4% | 33.1% |
